Measurements taken from the supplement of paper PMC10307832.

Columns and labels:
Test in all cases: relative viability (nuclei count vs DMSO), 5 days (fraction); higher = more cells survive
Tosedostat + Alpelisib = compound: CC(C)C[C@@H](C(=O)N[C@H](C(=O)OC1CCCC1)c1ccccc1)[C@H](O)C(=O)NO [Tosedostat] + Cc1nc(NC(=O)N2CCC[C@H]2C(N)=O)sc1-c1ccnc(C(C)(C)C(F)(F)F)c1 [Alpelisib] (partner 2 µM)
Outline: (§1)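 Cells from lung cancer lines were seeded into 1536-well plates and, one day later, dosed by pin tool. Treatments were either a single drug or a fixed dose of an anchor drug with five library-drug doses (not always all listed) in √10 steps. After 5 days, nuclei were stained in a one-step fixation (final 0.05% Triton X-100, 1% formaldehyde, 1 ug/ml Hoechst) and counted on 4× images, and relative viability is the treated-to-vehicle nuclei ratio, as the median of duplicate plates.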

Tosedostat + Olaparib = compound: CC(C)C[C@@H](C(=O)N[C@H](C(=O)OC1CCCC1)c1ccccc1)[C@H](O)C(=O)NO [Tosedostat] + O=C(c1cc(Cc2n[nH]c(=O)c3ccccc23)ccc1F)N1CCN(C(=O)C2CC2)CC1 [Olaparib] (partner 8 µM)
Outline: as §1

[1] = compound: CC1=NN=C(O1)C2=NN=C(C=C2)N3CCC(CC3)OC4=C(C=CC(=C4)F)Cl + CC(C)C[C@H](NC(=O)[C@H](Cc1ccccc1)NC(=O)c1cnccn1)B(O)O [Bortezomib] (partner 0.002 µM)
Outline: as §1

[2] = compound: CC1=NN=C(O1)C2=NN=C(C=C2)N3CCC(CC3)OC4=C(C=CC(=C4)F)Cl + C[C@]1(O)C[C@@H](c2nc(-c3ccc4ccc(-c5ccccc5)nc4c3)c3c(N)nccn32)C1 [Linsitinib] (partner 1 µM)
Outline: as §1

Cell Line | relative viability (Tosedostat + Alpelisib; first compound 0.02 µM) | relative viability (Tosedostat + Alpelisib; first compound 0.06325 µM) | relative viability (Tosedostat + Alpelisib; first compound 0.2 µM) | relative viability (Tosedostat + Alpelisib; first compound 0.6325 µM) | relative viability (Tosedostat + Alpelisib; first compound 2 µM) | relative viability (Tosedostat + Olaparib; first compound 0.02 µM) | relative viability (Tosedostat + Olaparib; first compound 0.06325 µM) | relative viability (Tosedostat + Olaparib; first compound 0.2 µM) | relative viability (Tosedostat + Olaparib; first compound 0.6325 µM) | relative viability (Tosedostat + Olaparib; first compound 2 µM) | relative viability ([1]; first compound 0.253 µM) | relative viability ([1]; first compound 0.8 µM) | relative viability ([1]; first compound 2.53 µM) | relative viability ([1]; first compound 8 µM) | relative viability ([2]; first compound 0.253 µM) | relative viability ([2]; first compound 0.8 µM) | relative viability ([2]; first compound 2.53 µM) | relative viability ([2]; first compound 8 µM)
ABC-1 | 1.05 | 0.864 | 1.08 | 0.843 | 0.771 | 0.842 | 0.784 | 0.843 | 0.848 | 0.491 | 0.26 | 0.314 | 0.237 | 0.267 | 0.627 | 0.465 | 0.575 | 0.451
SW 900 | – | – | – | – | – | 0.784 | 1.02 | 0.983 | 0.752 | 0.629 | – | – | – | – | – | – | – | –
SW 1573 | 0.578 | 0.76 | 0.641 | 0.588 | 0.567 | 0.493 | 0.42 | 0.363 | 0.372 | 0.281 | 0.865 | 0.834 | 1.01 | 1.15 | 0.805 | 0.727 | 0.74 | 0.673
NCI-H1648 | – | – | – | – | – | 0.799 | 0.644 | 0.764 | 0.875 | 0.587 | – | – | – | – | – | – | – | –
A549 | 0.753 | 0.714 | 0.683 | 0.709 | 0.526 | 0.42 | 0.247 | 0.359 | 0.26 | 0.306 | – | – | – | – | 0.543 | 0.565 | 0.427 | 0.351
A-427 | 1.1 | 1.09 | 1.12 | 1.12 | 0.983 | 0.763 | 0.674 | 0.708 | 0.757 | 0.747 | 0.867 | – | 0.864 | 0.802 | 0.947 | – | 0.907 | 0.887
NCI-H2009 | 1.24 | 1.14 | 1.12 | 1.05 | 0.955 | 0.702 | 0.592 | 0.661 | 0.603 | 0.544 | 0.555 | 0.426 | 0.523 | 0.493 | 0.684 | 0.636 | 0.623 | 0.589
LCLC-97TM1 | 0.199 | – | – | 0.247 | 0.211 | 0.335 | 0.436 | 0.309 | 0.236 | 0.251 | 0.373 | 0.211 | 0.392 | 0.362 | 0.159 | – | 0.174 | 0.191
NCI-H1792 | 0.761 | 0.745 | 0.649 | 0.602 | 0.67 | 0.481 | 0.425 | 0.386 | 0.317 | 0.432 | 0.405 | 0.423 | 0.401 | 0.494 | 0.324 | 0.409 | 0.36 | 0.401
LCLC-103H | 0.896 | 0.95 | 0.948 | 1.11 | 1.07 | 0.763 | 0.773 | 0.777 | 0.816 | 0.772 | 0.69 | 0.829 | 0.744 | 0.675 | 0.807 | 0.867 | 0.761 | 0.711
LOU-NH91 | 0.695 | 0.704 | 0.741 | 0.706 | 0.674 | 0.948 | 0.901 | 0.893 | 0.79 | 0.768 | – | 0.517 | 0.479 | 0.436 | – | 0.86 | 0.862 | 0.997
BEN | 1.09 | 1.01 | 1.15 | 1.28 | 1.26 | 1.11 | 0.952 | 1.31 | 1.09 | 1.02 | 0.726 | 0.771 | 0.932 | 0.719 | 0.784 | 0.879 | 0.919 | 0.75
NCI-H1755 | 0.941 | 0.9 | 0.922 | 0.864 | 0.883 | 0.924 | 0.851 | 0.827 | 0.857 | 0.776 | 0.493 | 0.625 | 0.73 | 0.628 | 0.661 | 0.754 | 0.728 | 0.683
LC-2-ad | 0.932 | 0.885 | 0.852 | 0.889 | 0.74 | 0.774 | 0.707 | 0.714 | 0.638 | 0.695 | 0.323 | 0.259 | 0.328 | 0.274 | 0.427 | 0.376 | 0.381 | 0.328
NCI-H1975 | 0.658 | 0.602 | 0.537 | 0.473 | 0.495 | 0.909 | 0.8 | 0.824 | 0.63 | 0.659 | – | 0.367 | 0.299 | 0.306 | – | 0.941 | 0.815 | 0.868
ChaGo-K-1 | – | – | – | – | – | 0.459 | 0.399 | 0.44 | 0.377 | 0.325 | 0.624 | 0.617 | 0.794 | 0.605 | – | – | – | –
NCI-H1650 | – | – | – | – | – | 0.768 | 0.732 | 0.754 | 0.515 | 0.594 | – | 0.202 | 0.17 | 0.197 | – | – | – | –
NCI-H358 | 0.881 | 0.824 | 0.688 | 0.538 | 0.442 | 0.547 | 0.679 | 0.438 | 0.229 | 0.211 | – | – | – | – | 0.714 | 0.751 | 0.758 | 0.795
NCI-H1944 | 0.929 | 0.811 | 0.817 | 0.742 | 0.818 | 0.429 | 0.427 | 0.414 | 0.355 | 0.371 | – | – | – | – | 0.626 | 0.769 | 0.728 | 0.717
NCI-H2342 | – | – | – | – | – | 0.401 | 0.392 | 0.444 | 0.295 | 0.373 | – | – | – | – | – | – | – | –
NCI-H522 | – | – | – | – | – | 0.637 | 0.644 | 0.658 | 0.788 | 0.637 | – | – | – | – | – | – | – | –
SK-MES-1 | 0.814 | 1 | 0.832 | 0.802 | 0.689 | 0.719 | 0.672 | 0.698 | 0.601 | 0.404 | – | – | – | – | 0.848 | 0.8 | 0.828 | 0.815
NCI-H2170 | 0.742 | 0.829 | 0.835 | 0.777 | 0.862 | 0.579 | 0.513 | 0.686 | 0.574 | 0.613 | – | – | – | – | – | – | – | –
NCI-H1793 | 0.691 | 0.851 | 0.567 | 0.649 | 0.673 | 0.884 | 0.879 | 0.763 | 0.698 | 0.669 | – | – | – | – | 0.725 | 0.735 | 0.952 | 0.822
